Test results reported in patent US20260015350A1, “AZAQUINAZOLINE PAN-KRAS INHIBITORS” (Mirati Therapeutics, Inc., priority 2022, published 2026).

Columns and labels:
[1] = tested on: KRas-mediated phosphorylation of ERK in MKN1 cells; experiment: Inhibition of KRas-mediated phosphorylation of ERK (Cisbio HTRF pERK), MKN1 cells; format: cell-based; settings: Homo sapiens, MKN-1
Outline: (§1)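 Phospho-ERK is quantified by HTRF with the Advanced pERK kit. Cells go in at 6,000/well in RPMI plus 10% FBS overnight at 37° C. under 5% CO2, with a 4-hour covered room-temperature incubation ahead of the read.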

[2] = tested on: KRas-mediated phosphorylation of ERK in H460 cells; experiment: Inhibition of KRas-mediated phosphorylation of ERK (Cisbio HTRF pERK), H460 cells; format: cell-based; settings: Homo sapiens, NCI-H460, HTRF pERK
Outline: (§2)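 H358, H727, H460 and AsPC-1 cells seeded at 6,000/well, treated 3 hrs with 10-dose 3-fold dilutions from 10 uM (0.8% DMSO); 0.2 uM trametinib as min control. Lysed 40 min at 4° C; lysate incubated 2 hrs at room temperature with d2/cryptate antibodies, HTRF read.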

[3] = tested on: KRas-mediated phosphorylation of ERK in H727 cells; experiment: Inhibition of KRas-mediated phosphorylation of ERK (Cisbio HTRF pERK), H727 cells; format: cell-based; settings: Homo sapiens, NCI-H727, H727 cells; HTRF pERK
Outline: as §2

[4] = tested on: KRas-mediated phosphorylation of ERK in HCT116 cells; experiment: Inhibition of KRas-mediated phosphorylation of ERK (Cisbio HTRF pERK), HCT116 cells; format: cell-based; settings: Homo sapiens, HCT-116, HTRF pERK
Outline: (§3)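 Compound treatment lasts 3 hrs on 6,000 seeded cells, testing 10 doses from a 10 uM top concentration in 3-fold decrements at 0.8% final DMSO. Trametinib at 0.2 uM defines the Min signal. Detection is HTRF on cold-lysed cell extracts.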

KRas^G12D = target: T1, KRas^G12D (Homo sapiens, UniProt P01116, G12D); experiment: KRas binding assay (TR-FRET tracer displacement), KRas G12D
T1 construct: Biotinylated KRas (corresponding to amino acids 1-169, produced at Accelegan Inc.); biotin (biotinylated); purchased Accelegan Inc
T1 sequence (P01116 1-169 isoform P01116-2 G12D): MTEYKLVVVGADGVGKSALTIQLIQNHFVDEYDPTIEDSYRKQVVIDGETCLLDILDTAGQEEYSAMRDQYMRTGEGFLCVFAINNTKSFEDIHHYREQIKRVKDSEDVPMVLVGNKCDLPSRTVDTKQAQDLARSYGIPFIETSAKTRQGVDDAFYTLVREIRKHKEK

KRas^G12R = target: T2, KRas^G12R (Homo sapiens, UniProt P01116, G12R); experiment: KRas binding assay (TR-FRET tracer displacement), KRas G12R
T2 construct: Biotinylated KRas (corresponding to amino acids 1-169, produced at Accelegan Inc.); biotin (biotinylated); purchased Accelegan Inc
T2 sequence (P01116 1-169 isoform P01116-2 G12R): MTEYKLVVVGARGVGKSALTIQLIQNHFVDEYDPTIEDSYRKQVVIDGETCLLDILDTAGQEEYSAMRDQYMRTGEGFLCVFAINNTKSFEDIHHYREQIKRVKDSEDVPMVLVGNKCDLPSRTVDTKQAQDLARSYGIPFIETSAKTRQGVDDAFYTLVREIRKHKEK

[5] = tested on: KRas-mediated phosphorylation of ERK in PSN1 cells; experiment: Inhibition of KRas-mediated phosphorylation of ERK (Cisbio HTRF pERK), PSN1 cells; format: cell-based; settings: Homo sapiens
Outline: as §1

[6] = tested on: KRas-mediated phosphorylation of ERK in A549 cells; experiment: Inhibition of KRas-mediated phosphorylation of ERK (Cisbio HTRF pERK), A549 cells; format: cell-based; settings: Homo sapiens, HTRF pERK
Outline: as §3

[7] = tested on: KRas-mediated phosphorylation of ERK in AsPC-1 cells; experiment: Inhibition of KRas-mediated phosphorylation of ERK (Cisbio HTRF pERK), AsPC-1 cells; format: cell-based; settings: Homo sapiens, ASPC1, AsPC-1 cells; HTRF pERK
Outline: as §2

KRas^G12V = target: T3, KRas^G12V (Homo sapiens, UniProt P01116, G12V); experiment: KRas binding assay (TR-FRET tracer displacement), KRas G12V
T3 construct: Biotinylated KRas (corresponding to amino acids 1-169, produced at Accelegan Inc.); biotin (biotinylated); purchased Accelegan Inc
T3 sequence (P01116 1-169 isoform P01116-2 G12V): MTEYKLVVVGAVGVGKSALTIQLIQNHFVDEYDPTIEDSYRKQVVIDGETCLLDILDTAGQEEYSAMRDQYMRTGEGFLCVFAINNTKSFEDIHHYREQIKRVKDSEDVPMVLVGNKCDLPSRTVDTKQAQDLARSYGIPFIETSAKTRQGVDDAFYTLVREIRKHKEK

[8] = tested on: KRas-mediated phosphorylation of ERK in H358 cells; experiment: Inhibition of KRas-mediated phosphorylation of ERK (Cisbio HTRF pERK), H358 cells; format: cell-based; settings: Homo sapiens, NCI-H358, HTRF pERK
Outline: as §2

IC50 [1]	IC50 [2]	IC50 [3]	IC50 [4]	IC50 (KRas^G12D)	IC50 (KRas^G12R)	IC50 [5]	IC50 [6]	IC50 [7]	IC50 (KRas^G12V)	IC50 [8]	Structure (SMILES)
4 nM	83 nM	2280 nM	171 nM	6 nM	10 nM	> 10000 nM	862 nM	1450 nM	8 nM	150 nM	CCc1c(F)ccc2cc(O)cc(-c3ncc4c(N5CC6CCC(C5)C6C(=O)NC)nc(OC[C@@]56CCCN5C[C@H](F)C6)nc4c3F)c12 (stereo partly drawn) [Example 850, (1R,5S,8S)-3-(7-(8-ethyl-7-fluoro-3-hydroxynaphthalen-1-yl)-8-fluoro-2-(((2R,7aS)-2-fluorotetrahydro-1H-pyrrolizin-7a(5H)-yl)methoxy)pyrido[4,3-d]pyrimidin-4-yl)-N-methyl-3-azabicyclo[3.2.1]octane-8-carboxamide]
3 nM	7 nM	375 nM	21 nM	6 nM	10 nM	> 10000 nM	19 nM	138 nM	7 nM	43 nM	CCc1c(F)ccc2cc(O)cc(-c3ncc4c(N5CC6CCC(C5)C6C(=O)N(C)C)nc(OC[C@@]56CCCN5C[C@H](F)C6)nc4c3F)c12 (stereo partly drawn) [Example 858, (1R,5S,8S)-3-(7-(8-ethyl-7-fluoro-3-hydroxynaphthalen-1-yl)-8-fluoro-2-(((2R,7aS)-2-fluorotetrahydro-1H-pyrrolizin-7a(5H)-yl)methoxy)pyrido[4,3-d]pyrimidin-4-yl)-N,N-dimethyl-3-azabicyclo[3.2.1]octane-8-carboxamide]
1 nM	173 nM	592 nM	254 nM	4 nM	< 2 nM	> 10000 nM	1340 nM	1450 nM	< 2 nM	45 nM	CCc1c(F)ccc2cc(O)cc(-c3ncc4c(N5CC6CCC(C5)C6C(N)=O)nc(OC[C@@]56CCCN5C[C@H](F)C6)nc4c3F)c12 (stereo partly drawn) [Example 861, 3-(7-(8-ethyl-7-fluoro-3-hydroxynaphthalen-1-yl)-8-fluoro-2-(((2R,7aS)-2-fluorohexahydro-1H-pyrrolizin-7a-yl)methoxy)pyrido[4,3-d]pyrimidin-4-yl)-3-azabicyclo[3.2.1]octane-8-carboxamide]

Second part, the molecule before the results:

Structure (SMILES)	IC50 [1]	IC50 [2]	IC50 [3]	IC50 [4]	IC50 (KRas^G12D)	IC50 (KRas^G12R)	IC50 [5]	IC50 [6]	IC50 [7]	IC50 (KRas^G12V)	IC50 [8]
C=C1[C@@H]2CC[C@H]1CN(c1nc(OC[C@@]34CCCN3C[C@H](F)C4)nc3c(F)c(-c4cc(O)cc5ccc(F)c(CC)c45)ncc13)C2 [Example 849, 5-ethyl-6-fluoro-4-(8-fluoro-2-(((2R,7aS)-2-fluorotetrahydro-1H-pyrrolizin-7a(5H)-yl)methoxy)-4-((1R,5S)-8-methylene-3-azabicyclo[3.2.1]octan-3-yl)pyrido[4,3-d]pyrimidin-7-yl)naphthalen-2-ol]	189 nM	802 nM	1000 nM	1780 nM	65 nM	24 nM	> 10000 nM	1270 nM	3090 nM	9 nM	286 nM
CCc1c(F)ccc2cc(O)cc(-c3ncc4c(N5CCC[C@@](C)(O)C5)nc(OC[C@@]56CCCN5[C@H](COCC5CCC5)CC6)nc4c3F)c12 [Example 852, (R)-1-(2-(((3S,7aS)-3-((cyclobutylmethoxy)methyl)tetrahydro-1H-pyrrolizin-7a(5H)-yl)methoxy)-7-(8-ethyl-7-fluoro-3-hydroxynaphthalen-1-yl)-8-fluoropyrido[4,3-d]pyrimidin-4-yl)-3-methylpiperidin-3-ol]	5 nM	42 nM	109 nM	38 nM	< 2 nM	< 2 nM	923 nM	68 nM	35 nM	< 2 nM	12 nM
CCOC[C@@H]1CC[C@]2(COc3nc(N4CCC[C@@](C)(O)C4)c4cnc(-c5cc(O)cc6ccc(F)c(CC)c56)c(F)c4n3)CCCN12 [Example 853, (R)-1-(2-(((3S,7aS)-3-(ethoxymethyl)tetrahydro-1H-pyrrolizin-7a(5H)-yl)methoxy)-7-(8-ethyl-7-fluoro-3-hydroxynaphthalen-1-yl)-8-fluoropyrido[4,3-d]pyrimidin-4-yl)-3-methylpiperidin-3-ol]	1 nM	23 nM	67 nM	36 nM	< 2 nM	< 2 nM	1070 nM	39 nM	33 nM	< 2 nM	10 nM
CN(C)CC1(COc2nc(N3CCCC4(CCO4)C3)c3cnc(-c4cc(O)cc5ccc(F)c(Cl)c45)c(F)c3n2)CC1 (stereo not shown) [Example 854, 5-chloro-4-(2-((1-((dimethylamino)methyl)cyclopropyl)methoxy)-8-fluoro-4-(1-oxa-6-azaspiro[3.5]nonan-6-yl)pyrido[4,3-d]pyrimidin-7-yl)-6-fluoronaphthalen-2-ol]	6 nM	21 nM	48 nM	40 nM	< 2 nM	< 2 nM	3690 nM	36 nM	20 nM	< 2 nM	11 nM
CCc1c(F)ccc2cc(O)cc(-c3ncc4c(N5CC6CCC(COCCOC)(C6)C5)nc(OC[C@@]56CCCN5C[C@H](F)C6)nc4c3F)c12 (stereo partly drawn) [Example 857, 5-ethyl-6-fluoro-4-(8-fluoro-2-(((2R,7aS)-2-fluorotetrahydro-1H-pyrrolizin-7a(5H)-yl)methoxy)-4-(1-((2-methoxyethoxy)methyl)-3-azabicyclo[3.2.1]octan-3-yl)pyrido[4,3-d]pyrimidin-7-yl)naphthalen-2-ol]	6 nM	144 nM	352 nM	410 nM	19 nM	9 nM	> 10000 nM	611 nM	967 nM	6 nM	369 nM
CCc1c(F)ccc2cc(O)cc(-c3ncc4c(N5CC6CCC(C5)C6CC(N)=O)nc(OC[C@@]56CCCN5C[C@H](F)C6)nc4c3F)c12 (stereo partly drawn) [Example 859, 2-((1R,5S,8S)-3-(7-(8-ethyl-7-fluoro-3-hydroxynaphthalen-1-yl)-8-fluoro-2-(((2R,7aS)-2-fluorotetrahydro-1H-pyrrolizin-7a(5H)-yl)methoxy)pyrido[4,3-d]pyrimidin-4-yl)-3-azabicyclo[3.2.1]octan-8-yl)acetamide]	56 nM	892 nM	5480 nM	1260 nM	51 nM	13 nM	> 10000 nM	> 10000 nM	> 10000 nM	17 nM	1140 nM
CCc1c(F)ccc2cc(O)cc(-c3ncc4c(N5CC6CCC(C5)C6CC(=O)N(C)C)nc(OC[C@@]56CCCN5C[C@H](F)C6)nc4c3F)c12 (stereo partly drawn) [Example 860, 2-((1R,5S,8S)-3-(7-(8-ethyl-7-fluoro-3-hydroxynaphthalen-1-yl)-8-fluoro-2-(((2R,7aS)-2-fluorotetrahydro-1H-pyrrolizin-7a(5H)-yl)methoxy)pyrido[4,3-d]pyrimidin-4-yl)-3-azabicyclo[3.2.1]octan-8-yl)-N,N-dimethylacetamide]	7 nM	395 nM	1120 nM	600 nM	91 nM	68 nM	> 10000 nM	2760 nM	2600 nM	13 nM	455 nM
CCc1c(F)ccc2cc(O)cc(-c3ncc4c(N5CC6CCC(C5)C6C)nc(OC[C@@]56CCCN5C[C@H](F)C6)nc4c3F)c12 (stereo partly drawn) [Example 862, 5-ethyl-6-fluoro-4-(8-fluoro-2-(((2R,7aS)-2-fluorohexahydro-1H-pyrrolizin-7a-yl)methoxy)-4-((1R,5S,8S)-8-methyl-3-azabicyclo[3.2.1]octan-3-yl)pyrido[4,3-d]pyrimidin-7-yl)naphthalen-2-ol]	196 nM	1110 nM	3700 nM	2870 nM	311 nM	95 nM	> 10000 nM	7210 nM	6210 nM	60 nM	1680 nM
